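Protocol summary: plate cells (96-well), add compound at 5 concentrations, incubate 48 h, interpolate endpoints linearly. Abbreviation: GI50, concentration required for 50% inhibition of growth. At the TGI there is no net growth.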
Assays:
Assay in all cases: inhibition of tumour cell growth, NCI panel, 48 h
[1] = system: SK-MEL-28 melanoma
[2] = system: HL-60(TB) leukemia
[3] = system: CCRF-CEM leukemia
[4] = system: IGROV1 ovarian
[5] = system: EKVX NSCLC
[6] = system: A549 NSCLC
[7] = system: NCI-H460 lung
[8] = system: TK-10 renal
[9] = system: HOP-92 NSCLC
[10] = system: PC-3 prostate

| Structure (SMILES) | TGI [1] | TGI [2] | TGI [3] | TGI [4] | TGI [5] | TGI [6] | TGI [7] | TGI [8] | TGI [9] | GI50 [1] | GI50 [2] | GI50 [10] | TGI [10] | GI50 [9] | GI50 [3] | GI50 [5] | GI50 [6] | GI50 [8] | GI50 [4] | GI50 [7] |
| --- | --- | --- | --- | --- | --- | --- | --- | --- | --- | --- | --- | --- | --- | --- | --- | --- | --- | --- | --- | --- |
| Cc1ccc(C2NC(=O)c3ccccc3N2)s1 (stereo not drawn) | > 100 µM | 8.17 µM | > 100 µM | > 100 µM | > 100 µM | > 100 µM | 58.4 µM | > 100 µM |  |  |  |  |  |  |  |  |  |  |  |  |
| CC(=O)OC1CC2Oc3ccc(C)cc3C(C)(O2)C1=O (stereo not drawn) | > 100 µM | > 100 µM | > 100 µM | > 100 µM | > 100 µM | > 100 µM | > 100 µM | > 100 µM |  |  |  |  |  |  |  |  |  |  |  |  |
| O=C(Cc1nc2ccccc2s1)C(=O)Nc1cccc(Cl)c1 | > 100 µM | > 100 µM | > 100 µM | > 100 µM | > 100 µM | > 100 µM |  | > 100 µM | > 100 µM |  |  |  |  |  |  |  |  |  |  |  |
| O=C(Cc1csc(-c2nc(CC(=O)NNc3ccccc3)cs2)n1)NNc1ccccc1 | > 100 µM | > 100 µM | > 100 µM | > 100 µM | > 100 µM | > 100 µM | 60.4 µM | > 100 µM | > 100 µM |  |  |  |  |  |  |  |  |  |  |  |
| COc1ccc(C(=O)C(c2ccc(OC)cc2)C2OC(=O)C(Cl)=C2Cl)cc1 (stereo not drawn) | > 100 µM | > 100 µM | > 100 µM | > 100 µM | > 100 µM | > 100 µM | > 100 µM | > 100 µM | > 100 µM |  |  |  |  |  |  |  |  |  |  |  |
| CN(/N=C/c1cccc2cccnc12)c1ccc([N+](=O)[O-])cc1 | > 100 µM | > 100 µM | > 100 µM | > 100 µM | > 100 µM | > 100 µM | > 100 µM | > 100 µM | > 100 µM |  |  |  |  |  |  |  |  |  |  |  |
| O=c1cc(-c2ccccc2)oc2cc(O)cc(O)c12 | 43.5 µM | 48.3 µM | 59.6 µM |  | 72 µM | > 100 µM | 40.2 µM | 72.9 µM | 38.7 µM |  |  |  |  |  |  |  |  |  |  |  |
| CC#C/C(=N\OC[C@H]1COCCN1)c1ccc2ncnc(Nc3ccc(OCc4cccc(F)c4)c(Cl)c3)c2c1 | 3.34 µM | 4.57 µM | 3.85 µM |  | 2.44 µM | 9.85 µM |  | 1.48 µM | 2.48 µM | 1.77 µM | 2.04 µM | 1.81 µM | 3.98 µM | 1.14 µM | 1.73 µM | 0.343 µM | 1.64 µM | 0.0335 µM |  |  |
| CN1CCN(c2ccc(Nc3nc(N)c(C(=O)c4ccc5c(c4)OCCO5)s3)cc2)CC1 | 10.5 µM | 11.6 µM | 23.9 µM | 9.27 µM |  | 15.7 µM | 9.75 µM | 10.1 µM | 3.5 µM | 4.6 µM | 4.62 µM | 1.77 µM | 8.47 µM | 0.204 µM | 4.66 µM |  | 4.3 µM | 3.14 µM | 2.27 µM | 2.85 µM |
| Cc1ccc(C(=O)Nc2ccc(S(=O)(=O)O)c3cc(S(=O)(=O)O)cc(S(=O)(=O)O)c23)cc1NC(=S)Nc1cc(C(=O)Nc2ccc(S(=O)(=O)O)c3cc(S(=O)(=O)O)cc(S(=O)(=O)O)c23)ccc1C | > 75 µM | > 75 µM | > 75 µM | > 75 µM |  | > 75 µM | > 75 µM | > 75 µM |  |  |  |  | > 75 µM |  |  |  |  |  |  |  |
| COc1ccc(/C=C2\CC(C)CC3C2=NN(C(C)=O)C3c2ccc(OC)cc2)cc1 (stereo not drawn) |  | 61 µM | > 100 µM | > 100 µM | > 100 µM | > 100 µM | 48.7 µM | > 100 µM | 44.2 µM |  | 13.7 µM | 24.2 µM | > 100 µM | 17.2 µM | 22 µM | 27.3 µM | 25.1 µM | 30.3 µM | 31.6 µM | 18.5 µM |
| CN(C)CCNC(=O)c1cccc2c(Nc3ccc(S(N)(=O)=O)cc3)c3ccccc3nc12 | 3 µM |  |  | 16 µM | 10.2 µM | 7.29 µM | 1.96 µM |  | 7.27 µM |  |  |  |  |  |  |  |  |  |  |  |
| COc1cc(O)c2c(c1)C(=O)C=C(Cl)C2=O | > 100 µM | > 100 µM | > 100 µM | > 100 µM | > 100 µM | > 100 µM |  | > 100 µM | > 100 µM |  |  |  |  |  |  |  |  |  |  |  |
| CN(C)CCSc1cccc(-c2cc(-c3cccc(SCCN(C)C)c3)nc(SCCN(C)C)n2)c1 | 3.4 µM | 3.67 µM | 4.8 µM | 13.8 µM | 5.24 µM | 3.47 µM | 3.46 µM | 9.65 µM | 6.87 µM |  |  |  |  |  |  |  |  |  |  |  |
| CC1(C)OB(O)OC1(C)C | > 100 µM | > 100 µM | > 100 µM | > 100 µM | > 100 µM | > 100 µM | > 100 µM | > 100 µM |  |  |  |  |  |  |  |  |  |  |  |  |
| O=C(O)/C(Cl)=C(\Cl)C(=O)NC1C2CC3CC(C2)CC1C3 (stereo not drawn) | > 100 µM | > 100 µM | > 100 µM | > 100 µM | > 100 µM | > 100 µM |  |  | > 100 µM |  |  |  |  |  |  |  |  |  |  |  |
| O=C1c2ccccc2NC1(c1ccccc1)c1c(-c2ccccc2)[nH]c2ccccc12 (stereo not drawn) | > 100 µM | 30.3 µM | > 100 µM | > 100 µM | > 100 µM | > 100 µM | > 100 µM |  | > 100 µM |  |  |  |  |  |  |  |  |  |  |  |
| O=S(=O)(SCc1ccccc1)C(c1ccccc1)c1ccccc1 | > 100 µM | 77 µM | > 100 µM | > 100 µM | > 100 µM | > 100 µM | > 100 µM | > 100 µM | 35.5 µM |  |  |  |  |  |  |  |  |  |  |  |
| NCCN.NCCN.O=C[O-].O=C[O-].[Co+3].[O-][Cl+3]([O-])([O-])[O-] | > 100 µM | > 100 µM | > 100 µM | > 100 µM |  | > 100 µM | > 100 µM | > 100 µM | > 100 µM | > 100 µM | > 100 µM |  |  | > 100 µM | > 100 µM |  | > 100 µM | > 100 µM | > 100 µM | > 100 µM |
| CC(=O)C1C(=O)NC(=O)C1=O (stereo not drawn) | > 100 µM |  |  | > 100 µM | > 100 µM |  | > 100 µM | > 100 µM | > 100 µM |  |  |  |  |  |  |  |  |  |  |  |
| CCN(CC)CCCC(C)Nc1ccnc2ccc3nn(C)nc3c12 (stereo not drawn) |  | > 100 µM | > 100 µM | > 100 µM | > 100 µM | > 100 µM | > 100 µM | > 100 µM |  |  |  |  |  |  |  |  |  |  |  |  |

From PubChem BioAssay (NCI)
